From US20240050427A1, “TREATMENTS FOR OBSESSIVE COMPULSIVE DISORDER” (SIRGARTAN HOLDINGS LTD, priority 2022, published 2024) come the findings set out here.

For data set [1], the system named is rat model of OCD. Kind of data set: Observing Response Task (ORT), rat model of compulsive-like checking in OCD (sign-trackers = OCD model, goal-trackers = controls). In kind it is in vivo. The conditions noted are these: rats, 30 mg/kg single intraperitoneal dose.
Data set [2] deals with rat model of OCD. Described as above. In kind it is in vivo. The source says:
OCD may be studied using animal models and such models may be used to evaluate compounds of the present invention. One model may be a rat model of compulsive-like checking behaviour described by Eagle et al., Behav. Brain Res, 1 May 2014; 264(100): 207-29. Briefly, rats are trained to work for palatable food which is unpredictably available for responding on one of two levers in an operant chamber. The rats can gain information about the location of the effective lever by making ‘observing responses’ on a third lever at the rear of the chamber. Predictably, responding on this lever is increased under conditions of uncertainty, as this adaptive checking increases the chance of food reward. However, some rats respond excessively on the observing lever and this can be disadvantageous or ‘non-functional’. This excessive checking behaviour is boosted by treatment with dopamine D2 receptor drugs such as quinpirole and also if there is a prior tendency in rats to over-respond to conditioning signals for food (‘sign-tracking’), associated with elevated dopamine activity in the nucleus accumbens. Rats who respond to the food itself are called goal-trackers. […] Moreover, in a human version of this test (i.e. involving essentially the same task for humans as for rodents), it has been shown that OCD patients check more than healthy control volunteers (Morein-Zamir et al., Q. J. Exp. Psychol. (Hove), 2018 October; 71(10): 2052-2069).
Male Lister-hooded rats (n=48, Charles River, UK) were group-housed in fours and maintained at approximately 95% free-feeding weight. Experiments were conducted during the dark phase of a reversed 12-hour light-dark cycle (lights off at 07:00). This research was conducted on UK Home Office Project Licence PA9FBFA9F and was regulated under the Animals (Scientific Procedures) Act 1986 Amendment Regulations 2012 following ethical review by the University of Cambridge Animal Welfare and Ethical Review Body.
The 48 male Lister-Hooded rats were trained on the Observing Response Task (ORT) and classified as sign-trackers […] or goal-trackers (n=24) following AutoShaping training, as described previously. Based on the research described above, the sign-tracker rats provide the OCD model and the goal-trackers are controls.
The ‘drug treatment’ data refer to behaviour under the influence of the specific dose (3 mg/kg or 10 mg/kg), 2 hours after an intraperitoneal injection. The ‘0 mg/kg’ data refer to an intraperitoneal injection of the 0.9% (w/v) physiological saline vehicle.
Rats were divided into groups to receive different doses of AZD-8529 in a counterbalanced order. […] “mg/kg” refers to a dose that was determined based on the body weight of the rat. For example, a rat weighing 0.5 kg receiving a dose of 3 mg/kg would receive a dose of 1.5 mg.
All statistical analyses were conducted using IBM SPSS Statistics v27. Data were analysed using repeated measures ANOVAs. Omnibus ANOVAs were first conducted to determine whether the order of drug dosing influenced the behavioural outcomes, and whether there were differences in baseline levels of responding. Planned ANOVAs assessing the drug administration sessions only were subsequently conducted.

Turning to `Cc1cc(-c2nc(CN3CCNCC3)no2)cc2c1C(=O)N(Cc1ccc(OC(F)(F)F)cc1)C2` [AZD-8529, 7-methyl-5-(3-piperazin-1-ylmethyl-[1,2,4]oxadiazol-5-yl)-2-(4-trifluoromethoxybenzyl)-2,3-dihydroisoindol-1-one], in the data set with rat model of OCD [1], the adverse effects result was “unexpected adverse gastrointestinal effects”. Moreover, the “number of rewards earned during the session” value was “equivalent numbers of rewards were earned” in the data set on rat model of OCD [2] (3 mg/kg i.p. vs vehicle, full cohort, p=0.91); “reduced the numbers of reward earned” with rat model of OCD [2] (10 mg/kg i.p., full cohort, compared to vehicle and 3 mg/kg, p<0.001). Further, the “increased responding on the active lever during the cue (discrimination with light on)” value in the data set with rat model of OCD [2] (3 mg/kg i.p., full cohort, p=0.38) is “not seen”; in the data set with rat model of OCD [2] (10 mg/kg i.p., full cohort, p=0.21), “not seen”. In addition, the “dysfunctional checking (eOLPs)” value in the data set on rat model of OCD [2] (OCD model (sign-trackers), 3 mg/kg i.p. vs 0 mg/kg control, p<0.002) is “reduction in dysfunctional checking”; in the data set with rat model of OCD [2] (OCD model (sign-trackers), 10 mg/kg i.p. vs 0 mg/kg control, p<0.002, not lower than 3 mg/kg (p=0.94)), “reduction in dysfunctional checking”; in the data set on rat model of OCD [2] (controls (goal-trackers), 3 and 10 mg/kg i.p., all p's>0.079), “no overall reduction in dysfunctional checking”. Further, the “functional checking (Observing Lever Presses, OLPs)” value in the data set with rat model of OCD [2] (OCD model (sign-trackers), 3 and 10 mg/kg i.p., 2 hours after injection, p<0.001) is on record as “reduced functional checking in a dose-dependent manner”; in the data set on rat model of OCD [2] (controls (goal-trackers), 3 and 10 mg/kg i.p., 2 hours after injection, p=0.008), “reduced functional checking in a dose-dependent manner”; in the data set with rat model of OCD [2] (full cohort (sign-trackers plus goal-trackers), 3 and 10 mg/kg i.p. vs 0 mg/kg, 2 hours after injection, mesylate salt, p<0.001), “reduced functional checking in a dose-dependent manner”. Besides, the “dysfunctional checking (Extra Observing Lever Presses, eOLPs)” value in the data set on rat model of OCD [2] (full cohort, 3 and 10 mg/kg i.p. vs 0 mg/kg, 2 hours after injection, p<0.001) is “reduced dysfunctional checking in a dose-dependent manner”.
